Marks after values point to notes of the source that are not given here.
Assays:
Assay type in all cases: in vivo
Details in all cases: 100 = 100% disease control, 0 = no disease control relative to controls
[1] = test system: Puccinia recondita f. sp. tritici; experiment: Test B: wheat leaf rust, preventive spray on wheat seedlings, visual disease rating
Source text: General protocol for preparing test suspensions for Tests A-F: […] The resulting test suspensions were then used in Tests A-F. The test suspensions were sprayed to the point of run-off on the test plants. All results are for 200 ppm (equivalent to a rate of 500 g/ha) except where followed by “*” which indicates 40 ppm. The test suspension was sprayed to the point of run-off on wheat seedlings. The following day the seedlings were inoculated with a spore suspension of Puccinia recondita f. sp. tritici (the causal agent of wheat leaf rust) and incubated in a saturated atmosphere at 20° C. for 24 h, and then moved to a growth chamber at 20° C. for 7 days, after which time visual disease ratings were made. […] A dash (-) indicates no test results. All results are for 200 ppm except where followed by “*”, which indicates 40 ppm.

Septoria nodorum = experiment: Test D: wheat glume blotch, preventive spray on wheat seedlings, visual disease rating
Source text: General protocol for preparing test suspensions for Tests A-F: […] The resulting test suspensions were then used in Tests A-F. The test suspensions were sprayed to the point of run-off on the test plants. All results are for 200 ppm (equivalent to a rate of 500 g/ha) except where followed by “*” which indicates 40 ppm. The test suspension was sprayed to the point of run-off on wheat seedlings. The following day the seedlings were inoculated with a spore suspension of Septoria nodorum (the causal agent of wheat glume blotch) and incubated in a saturated atmosphere at 20° C. for 48 h, and then moved to a growth chamber at 20° C. for 7 days, after which time visual disease ratings were made. […] A dash (-) indicates no test results. All results are for 200 ppm except where followed by “*”, which indicates 40 ppm.

Septoria tritici = experiment: Test C: wheat leaf blotch, preventive spray on wheat seedlings, visual disease rating
Source text: General protocol for preparing test suspensions for Tests A-F: […] The resulting test suspensions were then used in Tests A-F. The test suspensions were sprayed to the point of run-off on the test plants. All results are for 200 ppm (equivalent to a rate of 500 g/ha) except where followed by “*” which indicates 40 ppm. The test suspension was sprayed to the point of run-off on wheat seedlings. The following day the seedlings were inoculated with a spore suspension of Septoria tritici (the causal agent of wheat leaf blotch) and incubated in saturated atmosphere at 20° C. for 48 h, and moved to a growth chamber at 20° C. for 19 additional days, after which time visual disease ratings were made. […] A dash (-) indicates no test results. All results are for 200 ppm except where followed by “*”, which indicates 40 ppm.

Botrytis cinerea = experiment: Test F: tomato Botrytis, preventive spray on tomato seedlings, visual disease rating
Source text: General protocol for preparing test suspensions for Tests A-F: […] The resulting test suspensions were then used in Tests A-F. The test suspensions were sprayed to the point of run-off on the test plants. All results are for 200 ppm (equivalent to a rate of 500 g/ha) except where followed by “*” which indicates 40 ppm. The test suspension was sprayed to the point of run-off on tomato seedlings. The following day the seedlings were inoculated with a spore suspension of Botrytis cinerea (the causal agent of tomato Botrytis) and incubated in saturated atmosphere at 20° C. for 48 h, and then moved to a growth chamber at 24° C. for 3 days, after which time visual disease ratings were made. […] A dash (-) indicates no test results. All results are for 200 ppm except where followed by “*”, which indicates 40 ppm.

Erysiphe graminis = experiment: Test A: wheat powdery mildew, preventive spray on wheat seedlings, visual disease rating
Source text: General protocol for preparing test suspensions for Tests A-F: […] The resulting test suspensions were then used in Tests A-F. The test suspensions were sprayed to the point of run-off on the test plants. All results are for 200 ppm (equivalent to a rate of 500 g/ha) except where followed by “*” which indicates 40 ppm. The test suspension was sprayed to the point of run-off on wheat seedlings. The following day the seedlings were inoculated with a spore dust of Erysiphe graminis, (the causal agent of wheat powdery mildew) and incubated in a growth chamber at 20° C. for 8 days, after which time visual disease ratings were made. […] A dash (-) indicates no test results. All results are for 200 ppm except where followed by “*”, which indicates 40 ppm.

Alternaria solani = experiment: Test E: tomato early blight, preventive spray on tomato seedlings, visual disease rating
Source text: General protocol for preparing test suspensions for Tests A-F: […] The resulting test suspensions were then used in Tests A-F. The test suspensions were sprayed to the point of run-off on the test plants. All results are for 200 ppm (equivalent to a rate of 500 g/ha) except where followed by “*” which indicates 40 ppm. The test suspension was sprayed to the point of run-off on tomato seedlings. […] A dash (-) indicates no test results. All results are for 200 ppm except where followed by “*”, which indicates 40 ppm.

[2] = Parastagonospora nodorum, 200 ppm
[3] = Zymoseptoria tritici, 504 h, 200 ppm
[4] = Blumeria graminis, 192 h, 200 ppm

Structure (SMILES) | pest or weed control at 200 ppm ([1]; 192 h, 200 ppm) [%] | pest or weed control at 200 ppm (Septoria nodorum; [2]) [%] | pest or weed control at 200 ppm (Septoria tritici; [3]) [%] | pest or weed control at 200 ppm (Botrytis cinerea; Botrytis cinerea, 200 ppm) [%] | pest or weed control at 200 ppm (Erysiphe graminis; [4]) [%] | pest or weed control at 200 ppm (Alternaria solani; Alternaria solani, 200 ppm) [%] | also measured
COc1cc(OC)cc(-c2c(-c3ccccc3F)nnc(Cl)c2-c2ccc(F)cc2F)c1 [Compound 18, 3-chloro-4-(2,4-difluorophenyl)-5-(3,5-dimethoxyphenyl)-6-(2-fluorophenyl)pyridazine] | 100 | 100 | 98 | 95 | 95 | 100 | –
C=C(C)c1nnc(C)c(-c2ccc(OC)cc2)c1-c1cc(OC)cc(OC)c1 [Compound 19] | – | – | – | – | – | – | Test B rating (disease control, wheat leaf rust) ([1]; 200 ppm): 98%; Test D rating (disease control, wheat glume blotch) (Septoria nodorum; 200 ppm): 0%; Test C rating (disease control, wheat leaf blotch) (Septoria tritici; 200 ppm): 98%; Test F rating (disease control, tomato Botrytis) (Botrytis cinerea; 200 ppm): 98%; Test A rating (disease control, wheat powdery mildew) (Erysiphe graminis; 200 ppm): 61%; Test E rating (disease control, tomato early blight) (Alternaria solani; 200 ppm): 100%
C=C(C)c1nnc(C)c(-c2ccc(F)cc2F)c1-c1cc(OC)cc(OC)c1 [Compound 20] | – | – | – | – | – | – | Test B rating (disease control, wheat leaf rust) ([1]; 200 ppm): 100%; Test D rating (disease control, wheat glume blotch) (Septoria nodorum; 200 ppm): 0%; Test C rating (disease control, wheat leaf blotch) (Septoria tritici; 200 ppm): 96%; Test F rating (disease control, tomato Botrytis) (Botrytis cinerea; 200 ppm): 99%; Test A rating (disease control, wheat powdery mildew) (Erysiphe graminis; 200 ppm): 96%; Test E rating (disease control, tomato early blight) (Alternaria solani; 200 ppm): 100%
C=C(C)c1nnc(C)c(-c2c(F)cccc2F)c1-c1cc(OC)cc(OC)c1 [Compound 21] | – | – | – | – | – | – | Test B rating (disease control, wheat leaf rust) ([1]; 40 ppm (marked *)): 99* %; Test D rating (disease control, wheat glume blotch) (Septoria nodorum; 40 ppm (marked *)): 0* %; Test C rating (disease control, wheat leaf blotch) (Septoria tritici; 40 ppm (marked *)): 98* %; Test F rating (disease control, tomato Botrytis) (Botrytis cinerea; 40 ppm (marked *)): 98* %; Test A rating (disease control, wheat powdery mildew) (Erysiphe graminis; 40 ppm (marked *)): 94* %; Test E rating (disease control, tomato early blight) (Alternaria solani; 40 ppm (marked *)): 98* %
COc1cc(OC)cc(-c2c(-c3ccccc3F)nnc(C)c2-c2c(F)cccc2F)c1 [Compound 22] | – | – | – | – | – | – | Test B rating (disease control, wheat leaf rust) ([1]; 40 ppm (marked *)): 100* %; Test D rating (disease control, wheat glume blotch) (Septoria nodorum; 40 ppm (marked *)): 84* %; Test C rating (disease control, wheat leaf blotch) (Septoria tritici; 40 ppm (marked *)): 97* %; Test F rating (disease control, tomato Botrytis) (Botrytis cinerea; 40 ppm (marked *)): 95* %; Test A rating (disease control, wheat powdery mildew) (Erysiphe graminis; 40 ppm (marked *)): 99* %; Test E rating (disease control, tomato early blight) (Alternaria solani; 40 ppm (marked *)): 100* %
Cc1nnc(-c2ccccc2F)c(-c2ccc(Cl)cc2)c1-c1c(F)cc(F)cc1F [Compound 23] | – | – | – | – | – | – | Test B rating (disease control, wheat leaf rust) ([1]; 200 ppm): 99%; Test D rating (disease control, wheat glume blotch) (Septoria nodorum; 200 ppm): 0%; Test C rating (disease control, wheat leaf blotch) (Septoria tritici; 200 ppm): 97%; Test F rating (disease control, tomato Botrytis) (Botrytis cinerea; 200 ppm): 86%; Test A rating (disease control, wheat powdery mildew) (Erysiphe graminis; 200 ppm): 99%; Test E rating (disease control, tomato early blight) (Alternaria solani; 200 ppm): 96%
COc1cc(OC)cc(-c2c(-c3ccccc3F)nnc(C)c2-c2c(F)cc(F)cc2F)c1 [Compound 24, 4-(3,5-dimethoxyphenyl)-3-(2-fluorophenyl)-6-methyl-5-(2,4,6-trifluorophenyl)pyridazine] | 100 | 100 | 96 | 94 | 100 | 100 | –
Cc1nnc(-c2ccccc2F)c(-c2cccc(F)c2)c1-c1c(F)cc(F)cc1F [Compound 25, 3-(2-fluorophenyl)-4-(3-fluorophenyl)-6-methyl-5-(2,4,6-trifluorophenyl)pyridazine] | 100 | 100 | 96 | 98 | 99 | 100 | –
COc1cc(OC)cc(-c2c(-c3ccccc3F)nnc(OC)c2-c2c(F)cc(F)cc2F)c1 [Compound 26, 4-(3,5-dimethoxyphenyl)-3-(2-fluorophenyl)-6-methoxy-5-(2,4,6-trifluorophenyl)pyridazine] | 100 | 100 | 99 | 99 | 90 | 95 | –
COc1cc(OC)cc(-c2c(-c3cc(F)c(F)cc3F)cnnc2-c2ccccc2F)c1 [Compound 27, 4-(3,5-dimethoxyphenyl)-3-(2-fluorophenyl)-5-(2,4,5-trifluorophenyl)pyridazine] | 100 | 84 | 99 | 100 | 89 | 99 | –
COc1cc(OC)cc(-c2c(-c3ccccc3F)nnc(C)c2-c2c(F)cc(OC)cc2F)c1 [Compound 28, 4-(2,6-difluoro-4-methoxyphenyl)-5-(3,5-dimethoxyphenyl)-6-(2-fluorophenyl)-3-methylpyridazine] | – | – | – | – | – | – | pest or weed control at 40 ppm ([1]; 192 h, 40 ppm (marked *)): 100%; pest or weed control at 40 ppm (Septoria nodorum; Parastagonospora nodorum, 40 ppm (marked *)): 100%; pest or weed control at 40 ppm (Septoria tritici; Zymoseptoria tritici, 504 h, 40 ppm (marked *)): 97%; pest or weed control at 40 ppm (Botrytis cinerea; Botrytis cinerea, 40 ppm (marked *)): 100%; pest or weed control at 40 ppm (Erysiphe graminis; Blumeria graminis, 192 h, 40 ppm (marked *)): 85%; pest or weed control at 40 ppm (Alternaria solani; Alternaria solani, 40 ppm (marked *)): 100%
COc1cc(OC)cc(-c2c(-c3ccccc3F)nnc(C)c2-c2c(F)cc(OCCCN(C)C)cc2F)c1 [Compound 29, 3-[4-[5-(3,5-dimethoxyphenyl)-6-(2-fluorophenyl)-3-methyl-4-pyridazinyl]-3,5-difluorophenoxy]-N,N-dimethyl-1-propanamine] | 100 | 92 | 98 | 99 | 92 | 99 | –
CNCCCOc1cc(F)c(-c2c(C)nnc(-c3ccccc3F)c2-c2cc(OC)cc(OC)c2)c(F)c1 [Compound 30, 3-[4-[5-(3,5-dimethoxyphenyl)-6-(2-fluorophenyl)-3-methyl-4-pyridazinyl]-3,5-difluorophenoxy]-N-methyl-1-propanamine] | 100 | 98 | 99 | 100 | 89 | 98 | –

Reference: patent publication US20110136762A1, “FUNGICIDAL PYRIDAZINES” (E.I. Du Pont de Nemours and Company, priority 2008, published 2011)
